The record followed here is ChEMBL document CHEMBL5233233, “Histone deacetylase 3 (HDAC3) inhibitors as anticancer agents: A review” (Eur J Med Chem, 2020).

For assay [1], the target named is T1, Protein deacetylase HDAC6 (Homo sapiens, UniProt Q9UBN7).
T1 sequence (Q9UBN7 whole entry): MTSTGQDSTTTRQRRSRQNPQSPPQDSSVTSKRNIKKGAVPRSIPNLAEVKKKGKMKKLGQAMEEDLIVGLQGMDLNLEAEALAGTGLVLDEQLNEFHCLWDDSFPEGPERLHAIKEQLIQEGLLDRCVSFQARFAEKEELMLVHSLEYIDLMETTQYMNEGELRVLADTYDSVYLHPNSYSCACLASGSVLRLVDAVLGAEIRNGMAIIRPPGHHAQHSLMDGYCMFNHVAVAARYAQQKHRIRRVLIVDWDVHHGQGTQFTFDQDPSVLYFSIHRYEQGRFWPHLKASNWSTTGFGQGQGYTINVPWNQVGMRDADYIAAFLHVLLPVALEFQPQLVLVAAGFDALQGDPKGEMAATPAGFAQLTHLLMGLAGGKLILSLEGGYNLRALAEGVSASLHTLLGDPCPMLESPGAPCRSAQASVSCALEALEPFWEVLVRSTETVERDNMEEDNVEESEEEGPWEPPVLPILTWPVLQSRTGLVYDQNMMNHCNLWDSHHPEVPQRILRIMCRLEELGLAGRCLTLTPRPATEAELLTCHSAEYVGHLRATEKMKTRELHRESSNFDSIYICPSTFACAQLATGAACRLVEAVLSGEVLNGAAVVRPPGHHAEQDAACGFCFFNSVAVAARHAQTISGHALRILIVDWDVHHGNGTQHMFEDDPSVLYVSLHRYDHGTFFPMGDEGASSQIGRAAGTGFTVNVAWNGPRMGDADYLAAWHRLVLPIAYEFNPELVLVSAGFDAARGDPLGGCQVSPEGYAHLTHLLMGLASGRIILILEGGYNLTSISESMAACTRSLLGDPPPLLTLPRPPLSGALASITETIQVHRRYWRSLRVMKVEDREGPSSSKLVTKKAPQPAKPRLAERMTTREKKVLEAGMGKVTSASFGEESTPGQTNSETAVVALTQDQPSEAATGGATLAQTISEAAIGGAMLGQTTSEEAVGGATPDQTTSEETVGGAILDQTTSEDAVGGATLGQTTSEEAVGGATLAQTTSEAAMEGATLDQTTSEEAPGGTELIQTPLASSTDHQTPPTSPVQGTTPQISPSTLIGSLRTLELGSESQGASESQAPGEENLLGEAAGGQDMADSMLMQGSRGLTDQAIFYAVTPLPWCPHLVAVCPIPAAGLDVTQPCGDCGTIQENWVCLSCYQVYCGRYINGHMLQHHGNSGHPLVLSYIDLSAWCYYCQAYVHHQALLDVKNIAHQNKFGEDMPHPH
Briefly: Inhibition of human recombinant HDAC6 using (FAM)-labeled acetylated peptide substrate at 1 uM incubated for 17 hrs by fluorescence based analysis.

Assay [2] concerns the target T2, Histone deacetylase 2 (Homo sapiens, UniProt Q92769). Briefly: Inhibition of human recombinant HDAC2 using (FAM)-labeled acetylated peptide substrate at 1 uM incubated for 17 hrs by fluorescence based analysis.
Assay [3] addresses T3, Histone deacetylase 8 (Homo sapiens, UniProt Q9BY41).
T3 sequence (Q9BY41 whole entry): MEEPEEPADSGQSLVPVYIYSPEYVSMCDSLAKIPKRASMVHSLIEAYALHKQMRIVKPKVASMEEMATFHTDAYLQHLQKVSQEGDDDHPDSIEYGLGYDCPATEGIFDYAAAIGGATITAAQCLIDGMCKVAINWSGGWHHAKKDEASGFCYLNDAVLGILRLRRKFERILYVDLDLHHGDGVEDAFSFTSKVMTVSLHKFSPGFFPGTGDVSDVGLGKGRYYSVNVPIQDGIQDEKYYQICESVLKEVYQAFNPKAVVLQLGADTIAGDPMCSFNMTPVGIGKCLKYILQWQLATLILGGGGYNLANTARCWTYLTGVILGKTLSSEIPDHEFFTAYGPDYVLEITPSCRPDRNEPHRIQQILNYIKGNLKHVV
Briefly: Inhibition of human recombinant HDAC8 using (FAM)-labeled acetylated peptide substrate at 1 uM incubated for 17 hrs by fluorescence based analysis.

The target in assay [4] is T4, Histone deacetylase 1 (Homo sapiens, UniProt Q13547). Briefly: Inhibition of human recombinant HDAC1 using (FAM)-labeled acetylated peptide substrate at 1 uM incubated for 17 hrs by fluorescence based analysis.
T4 sequence (Q13547 whole entry): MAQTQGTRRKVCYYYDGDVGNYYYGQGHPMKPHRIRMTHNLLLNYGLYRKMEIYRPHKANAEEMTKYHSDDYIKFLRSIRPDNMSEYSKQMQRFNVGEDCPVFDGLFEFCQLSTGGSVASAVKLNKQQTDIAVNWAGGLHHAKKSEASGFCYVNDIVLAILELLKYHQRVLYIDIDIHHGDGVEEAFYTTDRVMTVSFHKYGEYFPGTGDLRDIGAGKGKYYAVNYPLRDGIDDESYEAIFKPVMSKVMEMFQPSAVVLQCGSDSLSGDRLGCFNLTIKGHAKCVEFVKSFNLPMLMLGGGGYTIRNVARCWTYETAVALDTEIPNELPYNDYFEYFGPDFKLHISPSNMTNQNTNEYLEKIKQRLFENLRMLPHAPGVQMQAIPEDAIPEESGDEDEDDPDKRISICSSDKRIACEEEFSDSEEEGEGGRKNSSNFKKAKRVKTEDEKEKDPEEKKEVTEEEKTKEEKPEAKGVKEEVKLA
The target of assay [5] is T5, Histone deacetylase 3 (Homo sapiens, UniProt O15379). Kind of assay: Inhibition of recombinant HDAC3 (unknown origin) measured after 24 hrs by fluorometric analysis.
T5 sequence (O15379 whole entry): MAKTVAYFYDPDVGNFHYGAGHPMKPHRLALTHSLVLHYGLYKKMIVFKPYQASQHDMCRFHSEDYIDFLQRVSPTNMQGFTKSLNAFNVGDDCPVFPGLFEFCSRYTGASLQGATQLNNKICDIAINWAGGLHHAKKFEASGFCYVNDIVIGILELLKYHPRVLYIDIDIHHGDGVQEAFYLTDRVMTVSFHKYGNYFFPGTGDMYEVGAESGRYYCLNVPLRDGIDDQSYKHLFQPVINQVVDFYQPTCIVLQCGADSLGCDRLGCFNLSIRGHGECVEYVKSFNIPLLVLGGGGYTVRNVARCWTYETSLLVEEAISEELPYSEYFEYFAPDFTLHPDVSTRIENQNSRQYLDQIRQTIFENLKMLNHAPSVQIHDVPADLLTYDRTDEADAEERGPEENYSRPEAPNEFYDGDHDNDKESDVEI
Assay [6] addresses T4, Histone deacetylase 1. Kind of assay: Inhibition of human recombinant HDAC1 at 50 uM measured after 24 hrs by fluorometric analysis.
The target of assay [7] is T2, Histone deacetylase 2. Kind of assay: Inhibition of recombinant HDAC2 (unknown origin) at 50 uM measured after 24 hrs by fluorometric based analysis.
For assay [8], the target named is T5, Histone deacetylase 3. Kind of assay: Inhibition of HDAC3 (unknown origin) at 5uM.
Assay [9] has as its target T6, Polyamine deacetylase HDAC10 (Homo sapiens, UniProt Q969S8).
T6 sequence (Q969S8 whole entry): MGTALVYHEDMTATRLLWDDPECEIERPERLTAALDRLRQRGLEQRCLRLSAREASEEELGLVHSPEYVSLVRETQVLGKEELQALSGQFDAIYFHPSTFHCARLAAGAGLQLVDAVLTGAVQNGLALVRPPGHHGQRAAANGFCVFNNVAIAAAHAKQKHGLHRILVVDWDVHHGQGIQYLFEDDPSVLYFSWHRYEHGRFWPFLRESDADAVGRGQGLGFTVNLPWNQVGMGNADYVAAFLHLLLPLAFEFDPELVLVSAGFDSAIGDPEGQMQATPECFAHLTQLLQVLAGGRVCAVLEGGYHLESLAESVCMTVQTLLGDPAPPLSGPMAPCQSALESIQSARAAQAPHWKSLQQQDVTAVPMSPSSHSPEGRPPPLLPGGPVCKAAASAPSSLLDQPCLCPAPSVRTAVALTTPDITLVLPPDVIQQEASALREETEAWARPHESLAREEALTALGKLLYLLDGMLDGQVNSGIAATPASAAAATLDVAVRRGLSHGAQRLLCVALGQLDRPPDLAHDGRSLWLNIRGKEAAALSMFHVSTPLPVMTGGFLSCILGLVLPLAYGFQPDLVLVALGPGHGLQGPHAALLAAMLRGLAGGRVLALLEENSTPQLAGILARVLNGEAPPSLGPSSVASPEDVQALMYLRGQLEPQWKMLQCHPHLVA
Kind of assay: Inhibition of human recombinant HDAC10 using Fluor-de-Lys as substrate at 50 uM for 30 mins by fluorescence based assay.

The target in assay [10] is T2, Histone deacetylase 2. Kind of assay: Inhibition of human recombinant HDAC2 using Fluor-de-Lys as substrate at 50 uM for 30 mins by fluorescence based assay.
Assay [11] has as its target T1, Protein deacetylase HDAC6. Briefly: Inhibition of human recombinant HDAC6 using Fluor-de-Lys as substrate at 50 uM for 30 mins by fluorescence based assay.
Assay [12] concerns the target T4, Histone deacetylase 1. Briefly: Inhibition of human recombinant HDAC1 using Fluor-de-Lys as substrate at 50 uM for 30 mins by fluorescence based assay.
Assay [13] addresses T4, Histone deacetylase 1. Kind of assay: Inhibition of human recombinant HDAC1 using fluorogenic HDAC substrate measured after 20 mins by fluorescence assay.
Assay [14] has as its target T2, Histone deacetylase 2. Briefly: Inhibition of human recombinant HDAC2 using fluorogenic HDAC substrate measured after 20 mins by fluorescence assay.
For assay [15], the target named is T5, Histone deacetylase 3. Kind of assay: Inhibition of human HDAC3 using fluorogenic as substrate measured after 30 mins by fluorescence based analysis.
In the next assay the test system is PC-3. Kind of assay: Anticancer activity against human PC-3 cells assessed as reduction in cell viability. The assay is classed as functional, cell-based.
In assay [16] the target is T4, Histone deacetylase 1. Briefly: Inhibition of human HDAC1 by fluorescence based assay method.
The target in assay [17] is T4, Histone deacetylase 1. Kind of assay: Inhibition of HDAC1 (unknown origin) using Boc-Lys (Ac)-AMC as substrate measured after 30 mins by fluorescence based analysis.
Assay [18] deals with T1, Protein deacetylase HDAC6. Kind of assay: Inhibition of HDAC6 (unknown origin) using Boc-Lys (Ac)-AMC as substrate measured after 30 mins by fluorescence based analysis.
For assay [19], the target named is T5, Histone deacetylase 3. Briefly: Inhibition of HDAC3 (unknown origin) using Boc-Lys (Ac)-AMC as substrate measured after 30 mins by fluorescence based analysis.
Assay [20] has as its target T5, Histone deacetylase 3. Briefly: Inhibition of HDAC3 (unknown origin) at 10 uM.
For assay [21], the target named is T3, Histone deacetylase 8. Briefly: Inhibition of HDAC8 (unknown origin).
Assay [22] concerns the target T2, Histone deacetylase 2. Kind of assay: Inhibition of HDAC2 (unknown origin).
Assay [23] deals with T4, Histone deacetylase 1. Kind of assay: Inhibition of HDAC1 (unknown origin).
Assay [24] deals with T5, Histone deacetylase 3. Kind of assay: Inhibition of HDAC3 (unknown origin).

T2 sequence (Q92769 whole entry): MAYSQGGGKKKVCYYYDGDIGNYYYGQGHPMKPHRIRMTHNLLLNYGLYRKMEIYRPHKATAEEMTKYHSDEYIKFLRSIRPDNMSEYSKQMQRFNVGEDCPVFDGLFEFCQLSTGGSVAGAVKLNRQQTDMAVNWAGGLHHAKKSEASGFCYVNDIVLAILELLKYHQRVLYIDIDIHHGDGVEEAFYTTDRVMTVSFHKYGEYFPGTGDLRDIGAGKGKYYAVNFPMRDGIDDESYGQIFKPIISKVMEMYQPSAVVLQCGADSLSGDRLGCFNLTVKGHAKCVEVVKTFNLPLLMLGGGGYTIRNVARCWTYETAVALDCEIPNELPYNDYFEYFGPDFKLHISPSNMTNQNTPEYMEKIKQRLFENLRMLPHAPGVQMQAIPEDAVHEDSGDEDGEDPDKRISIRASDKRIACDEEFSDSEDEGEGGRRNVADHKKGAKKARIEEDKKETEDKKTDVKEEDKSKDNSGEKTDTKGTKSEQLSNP

As usually defined, the IC50 is the concentration that gives 50% inhibition. For the molecule `Nc1ccccc1NC(=O)CCCCCCC(=O)Nc1cccc(-c2cn(-c3ccccc3)nn2)c1`, the half-maximal inhibitory concentration (IC50) (in [1]; on Histone deacetylase 2 [2]; at Histone deacetylase 8 [3]; at Histone deacetylase 1 [4]) was over 30000 nM in each case.

With `Nc1ccc(F)cc1NC(=O)c1cc2ccccc2o1`, the IC50 on Histone deacetylase 3 [5] was 80 nM; on Histone deacetylase 1 [6] it was 1200 nM; at Histone deacetylase 2 [7] it was 1500 nM.

As for `O=C(CCCCCCN1C=Cc2ccccc2C1)NO`, on Histone deacetylase 3 [8], half-maximal inhibition (IC50) required 97 nM.

On to `Nc1ccccc1NC(=O)CCCCCCC(=O)NO`, for which the IC50 in [9] is 49.3 nM; at Histone deacetylase 2 [10], 101 nM; in [11] it was 9.93 nM; on Histone deacetylase 1 [12] it was 67.2 nM.

On to `COc1ccccc1NC(=O)N[C@H](C(=O)Nc1ccc(C(=O)NO)cc1)c1ccccc1`, for which the IC50 on Histone deacetylase 1 [13] was found to be 4.8 nM; at Histone deacetylase 2 [14], 19.5 nM; against Histone deacetylase 3 [15], 5.9 nM; in the assay with PC-3, 1510 nM.

Molecule `Nc1ccccc1NC(=O)c1ccc(CNc2nc(-c3ccccc3)c(-c3ccccc3)o2)cc1` registered an IC50 on Histone deacetylase 1 [16] of 6 nM.

Consider `COC(=O)/C=C/c1ccc(OCCCNc2cc3c([nH]c4ccccc43)c(-c3ccc(OC)cc3)n2)c(OC)c1`, for which the IC50 came out at 27 nM against Histone deacetylase 1 [17], 13 nM in assay [18] and 148 nM against Histone deacetylase 3 [19].

At Histone deacetylase 3 [20], `COc1ccc(C(=O)N[C@@H](Cc2c[nH]c3ccccc23)C(=O)Nc2ccc(C(=O)Nc3ccc(-c4cccs4)cc3N)cc2)cc1` showed an IC50 of 62500 nM.

Take `COC(=O)/C=C/c1ccc(OCCNc2cc3c([nH]c4ccccc43)c(-c3ccc(OC)cc3)n2)c(OC)c1`: the IC50 at Histone deacetylase 1 [17] is 32 nM; in assay [18], 17 nM; against Histone deacetylase 3 [19] it was 125 nM.

Consider `Nc1ccccc1NC(=O)c1ccc(CNc2nc(-c3ccccc3)cs2)cc1`, for which the IC50 at Histone deacetylase 8 [21] came out at 4100 nM; on Histone deacetylase 2 [22], 85 nM; at Histone deacetylase 1 [23], 930 nM; at Histone deacetylase 3 [24], 12 nM.
